Read-outs that look alike come from different tables or passages of the source.
Assay: Ames test (ISO/FDIS 7405), mutagenicity test
Assay type: cell-based
Excerpt: The improved toxicity is manifested, for example, in a lower mutagenicity.

Row | SMILES | Ames test (ISO/FDIS 7405) (mutagenicity) | Ames test (ISO/FDIS 7405)
1 | O=C(OCC1CCC2OC2C1)C1CCC2OC2C1 (stereo not drawn) [3,4-epoxycyclohexylmethyl 3,4-epoxycyclohexanecarboxylate, reference compound] | positive | 
2 | C[Si](C)(CC1CCC2OC2C1)CC1CCC2OC2C1 (stereo not drawn) [dimethylbis[2-(7-oxabicyclo[4.1.0]hept-3-yl)methyl]-silane] |  | negative
3 | C[Si](CCC1CCC2OC2C1)(CCC1CCC2OC2C1)c1ccccc1 (stereo not drawn) [methylbis[2-(7-oxabicyclo[4.1.0]hept-3-yl)ethyl]phenyl-silane] |  | negative

From patent US6779656B2, “Polymerizable preparations based on epoxides that contain silicon” (3M Espe AG, priority 2000, dated 2004)
